From patent US9695155B2, “Herbicidal substituted pyrimidinyloxy benzene compounds” (E. I. DU PONT DE NEMOURS AND COMPANY, priority 2013, dated 2017)

Columns and labels:
[1] = tested on: surinam grass; assay: Test F preemergence; assay type: in vivo, Brachiaria decumbens; conditions: 21 days, scale 0 to 100
Source text: (§1) Seeds of plant species selected from bermudagrass (Cynodon dactylon), surinam grass (Brachiaria decumbens), large (Lg) crabgrass (Digitaria sanguinalis), crabgrass, naked (naked crabgrass, Digitaria nuda), foxtail, green (green foxtail, Setaria viridis), johnsongrass (Sorghum halepense), kochia (Kochia scoparia), morningglory (pitted morningglory, Ipomoea lacunosa), nutsedge, purple (purple nutsedge, Cyperus rotundus), ragweed (common ragweed, Ambrosia elatior), mustard, black (black mustard, Brassica nigra), guineagrass (Panicum maximum), dallisgrass (Paspalum dilatatum), barnyardgrass (Echinochloa crus-galli), sandbur (southern sandbur, Cenchrus echinatus), sowthistle (common sowthistle, Sonchus oleraceous), Italian ryegrass (Lolium multiflorum), signalgrass (broadleaf signalgrass, Brachiaria platyphylla), dayflower (Virginia (VA) dayflower, Commelina virginica), bluegrass (annual bluegrass, Poa annua), quackgrass (Elytrigia repens), mallow (common mallow, Malva sylvestris), buckwheat, wild (wild buckwheat, Polygonum convolvulus), leafy spurge (Euphorbia esula), chickweed (common chickweed, Stellaria media), wild poinsettia (Euphorbia heterophylla), and pigweed (Amaranthus retroflexus) were planted into a blend of loam soil and sand and treated preemergence with test chemicals formulated in a non-phytotoxic solvent mixture which included a surfactant.
(§2) Treated plants and controls were maintained in a greenhouse for 21 days, after which time all species were compared to controls and visually evaluated. Plant response ratings, summarized in Table F, are based on a scale of 0 to 100 where 0 is no effect and 100 is complete control. A dash (-) response means no test result.

[2] = tested on: large (Lg) crabgrass; assay: Test F preemergence; assay type: in vivo, Digitaria sanguinalis; conditions: 21 days, scale 0 to 100
Source text: as §1, §2

[3] = tested on: crabgrass, naked; assay: Test F preemergence; assay type: in vivo, Digitaria nuda; conditions: 21 days, scale 0 to 100
Source text: as §1, §2

[4] = tested on: guineagrass; assay: Test F preemergence; assay type: in vivo, Panicum maximum; conditions: 21 days, scale 0 to 100
Source text: as §1, §2

[5] = tested on: bromegrass, downy; assay: Test D postemergence; assay type: in vivo, Bromus tectorum; conditions: for pest or weed control at 16 g/ha / pest or weed control at 31 g/ha / pest or weed control at 62 g/ha / pest or weed control at 125 g/ha: Bromus tectorum, post-emergence, read-out: Plant response rating, Bromegrass, Downy
Source text: (§3) Seeds of plant species selected from bluegrass (annual bluegrass, Poa annua), blackgrass (Alopecurus myosuroides), canarygrass (littleseed canarygrass, Phalaris minor), chickweed (common chickweed, Stellaria media), galium (catchweed bedstraw, Galium aparine), bromegrass, downy (downy bromegrass, Bromus tectorum), field poppy (Papaver rhoeas), field violet (Viola arvensis), green foxtail (Setaria viridis), deadnettle (henbit deadnettle, Lamium amplexicaule), Italian ryegrass (Lolium multiflorum), kochia (Kochia scoparia), lambsquarters (Chenopodium album), oilseed rape (Brassica napus), pigweed (Amaranthus retroflexus), chamomile (scentless chamomile, Matricaria inodora), Russian thistle (Salsola kali), speedwell (bird's-eye speedwell, Veronica persica), spring barley (Hordeum vulgare), spring wheat (Triticum aestivum), wild buckwheat (Polygonum convolvulus), wild mustard (Sinapis arvensis), wild oat (Avena fatua), wild radish (Raphanus raphanistrum), windgrass (Apera spica-venti), winter barley (Hordeum vulgare), and winter wheat (Triticum aestivum) were planted into a silt loam soil and treated preemergence with test chemicals formulated in a non-phytotoxic solvent mixture which included a surfactant.
(§4) At the same time, these species were planted in pots containing Redi-Earth® planting medium (Scotts Company, 14111 Scottslawn Road, Marysville, Ohio 43041) comprising spaghnum peat moss, vermiculite, wetting agent and starter nutrients and treated with postemergence applications of the test chemicals formulated in the same manner. Plants ranged in height from 2 to 18 cm (1- to 4-leaf stage). Treated plants and controls were maintained in a controlled growth environment for 7 to 21 days after which time all species were compared to controls and visually evaluated. Plant response ratings, summarized in Table D, are based on a scale of 0 to 100 where 0 is no effect and 100 is complete control. A dash (-) response means no test result.

[6] = tested on: wild mustard; assay: Test D postemergence; assay type: in vivo, Sinapis arvensis; conditions: for pest or weed control at 16 g/ha / pest or weed control at 31 g/ha / pest or weed control at 62 g/ha / pest or weed control at 125 g/ha: Brassica, post-emergence; for pest or weed control at 16 g/ha: scale 0-100, read-out: Plant response rating, Mustard, Wild; for pest or weed control at 31 g/ha / pest or weed control at 62 g/ha / pest or weed control at 125 g/ha: read-out: Plant response rating, Mustard, Wild
Source text: as §3, §4

[7] = Postemergence, 16 g ai/ha, scale 0 to 100 (0 no effect, 100 complete control)
[8] = Postemergence, 31 g ai/ha, scale 0 to 100 (0 no effect, 100 complete control)
[9] = Postemergence, 62 g ai/ha, scale 0 to 100 (0 no effect, 100 complete control)
[10] = Postemergence, 125 g ai/ha, scale 0 to 100 (0 no effect, 100 complete control)
[11] = 31 g ai/ha, scale 0 to 100 (0 no effect, 100 complete control)
[12] = 62 g ai/ha, scale 0 to 100 (0 no effect, 100 complete control)
[13] = 125 g ai/ha, scale 0 to 100 (0 no effect, 100 complete control)

Structure (SMILES) | Plant response rating, Surinam Grass ([1]; 16 g ai/ha) | Plant response rating, Surinam Grass ([1]; 31 g ai/ha) | Plant response rating, Surinam Grass ([1]; 62 g ai/ha) | Plant response rating, Surinam Grass ([1]; 125 g ai/ha) | Plant response rating, Surinam Grass ([1]; 250 g ai/ha) | Plant response rating, Crabgrass, Large ([2]; 16 g ai/ha) | Plant response rating, Crabgrass, Large ([2]; 31 g ai/ha) | Plant response rating, Crabgrass, Large ([2]; 62 g ai/ha) | Plant response rating, Crabgrass, Large ([2]; 125 g ai/ha) | Plant response rating, Crabgrass, Large ([2]; 250 g ai/ha) | Plant response rating, Crabgrass, Naked ([3]; 16 g ai/ha) | Plant response rating, Crabgrass, Naked ([3]; 31 g ai/ha) | Plant response rating, Crabgrass, Naked ([3]; 62 g ai/ha) | Plant response rating, Crabgrass, Naked ([3]; 125 g ai/ha) | Plant response rating, Crabgrass, Naked ([3]; 250 g ai/ha) | Plant response rating, Guineagrass ([4]; 16 g ai/ha) | Plant response rating, Guineagrass ([4]; 31 g ai/ha) | Plant response rating, Guineagrass ([4]; 62 g ai/ha) | Plant response rating, Guineagrass ([4]; 125 g ai/ha) | Plant response rating, Guineagrass ([4]; 250 g ai/ha) | further results
N#Cc1cccc(Oc2ncc(Cl)cn2)c1-n1cc(OC(F)F)cn1 [Compound 97] | 0 | 10 | 50 | 90 | 100 | 98 | 100 | 100 | 100 | 100 | 100 | 100 | 100 | 100 | 100 | 100 | 100 | 100 | 100 | 100 | 
Fc1cccc(Oc2ncc(Cl)cn2)c1-n1cc(C(F)F)nn1 [Compound 141, 5-chloro-2-[2-[4-(difluoromethyl)-1H-1,2,3-triazol-1-yl]-3-fluorophenoxy]pyrimidine] |  |  |  |  |  |  |  |  |  |  |  |  |  |  |  |  |  |  |  |  | pest or weed control at 16 g/ha [5, 7]: 15%; pest or weed control at 31 g/ha [5, 8]: 20%; pest or weed control at 62 g/ha [5, 9]: 30%; pest or weed control at 125 g/ha [5, 10]: 45%; pest or weed control at 16 g/ha ([6]; 16 g ai/ha): 80%; pest or weed control at 31 g/ha [6, 11]: 100%; pest or weed control at 62 g/ha [6, 12]: 100%; pest or weed control at 125 g/ha [6, 13]: 100%
FCc1cccc(Oc2ncc(Cl)cn2)c1-n1cc(I)cn1 [Compound 245] |  |  |  |  |  |  |  |  |  |  |  |  |  |  |  |  |  |  |  |  | Plant response rating, Bromegrass, Downy [5, 9]: 25; Plant response rating, Bromegrass, Downy [5, 8]: 20; Plant response rating, Bromegrass, Downy [5, 10]: 30; Plant response rating, Bromegrass, Downy ([5]; postemergence, 16 g ai/ha, scale 0 to 100, 0 no effect, 100 complete control): 20; Plant response rating, Mustard, Wild ([6]; 16 g ai/ha, scale 0-100): 80; Plant response rating, Mustard, Wild [6, 11]: 70; Plant response rating, Mustard, Wild [6, 12]: 100; Plant response rating, Mustard, Wild [6, 13]: 98
N#Cc1cccc(Oc2ncc(Cl)cn2)c1-n1cc(OCC(F)(F)F)cn1 [Compound 274, 3-[(5-chloro-2-pyrimidinyl)oxy]-2-[4-(2,2,2-trifluoroethoxy)-1H-pyrazol-1-yl]benzonitrile] | 10 | 35 | 70 | 100 | 100 | 100 | 100 | 100 | 100 | 100 | 100 | 100 | 100 | 100 | 100 | 100 | 100 | 100 | 100 | 100 | pest or weed control at 16 g/ha [5, 7]: 20%; pest or weed control at 31 g/ha [5, 8]: 25%; pest or weed control at 62 g/ha [5, 9]: 35%; pest or weed control at 125 g/ha [5, 10]: 40%; pest or weed control at 16 g/ha ([6]; 16 g ai/ha): 70%; pest or weed control at 31 g/ha [6, 11]: 75%; pest or weed control at 62 g/ha [6, 12]: 100%; pest or weed control at 125 g/ha [6, 13]: 100%
